Laboratory results reported in ChEMBL document CHEMBL5236589, “Design and Structural Optimization of Orally Bioavailable SOS1 Inhibitors for the Treatment of KRAS-Driven Carcinoma” (J Med Chem, 2022).
Activity calls are given as the source filed them. The rule behind the calls is not given here.

Key:
SOS1-KRAS = SOS1-KRAS (Homo sapiens, UniProt Q07889); test: Inhibition of human recombinant SOS1 (residue 564-1049)/KRAS G12C mutant protein-protein interaction at incubated for 25 degC for 60 mins by homogeneous time-resolved fluorescence (HTRF) method
[1] = Inhibition of SOS1/KRAS G13D mutant protein-protein interaction in human DLD-1 cells assessed as ERK1/2 phosphorylation measured after 1 hr by homogeneous time-resolved fluorescence (HTRF) method; type: cell-based; settings: DLD-1, 1 h
NCI-H358 = test: Antiproliferative activity against human NCI-H358 cells harboring SOS1/KRAS G12C mutant measured after 24 hrs by AlamarBlue based 3-D proliferation assay; type: functional, cell-based
[2] = Half life in ICR mouse at 10 mg/kg, po by LC-MS/MS analysis; type: ADME, organism-based; settings: in vivo
[3] = Tmax in ICR mouse at 10 mg/kg, po by LC-MS/MS analysis; type: ADME, organism-based; settings: in vivo
[4] = Cmax in ICR mouse at 10 mg/kg, po by LC-MS/MS analysis; type: ADME, organism-based; design: dose 10 mg/kg, route po; settings: in vivo
[5] = AUC in ICR mouse at 10 mg/kg, po by LC-MS/MS analysis; type: ADME, organism-based; design: dose 10 mg/kg, route po; settings: in vivo
[6] = MRT in ICR mouse at 10 mg/kg, po by LC-MS/MS analysis; type: ADME, organism-based; settings: in vivo
[7] = Elimination rate constant in ICR mouse at 10 mg/kg, po by LC-MS/MS analysis; type: ADME, organism-based; settings: in vivo
MIA PaCa-2 [8] = test: In vivo antitumor activity against human MIA PaCa-2 cells harboring KRAS G12C mutant xenografted in BALB/c mouse assessed as tumor growth inhibition at 50 mg/kg, po once a day measured for 16 days relative to control; type: functional; settings: MIA PaCa-2, 384 h, time 16 day, read-out: TGI
[9] = Toxicity in BALB/c mouse xenografted with human MIA PaCa-2 cells harboring KRAS G12C mutant assessed as change in body weight at 50 mg/kg, po once a day measured for 16 days; type: organism-based; settings: in vivo, 384 h, time 16 day
[10] = Half life in ICR mouse at 20 mg/kg, po by LC-MS/MS analysis; type: ADME, organism-based; settings: in vivo; for half-life: ICR
[11] = Tmax in ICR mouse at 20 mg/kg, po by LC-MS/MS analysis; type: ADME, organism-based; settings: in vivo
[12] = Cmax in ICR mouse at 20 mg/kg, po by LC-MS/MS analysis; type: ADME, organism-based; design: dose 20 mg/kg, route po; settings: in vivo
[13] = AUC in ICR mouse at 20 mg/kg, po by LC-MS/MS analysis; type: ADME, organism-based; design: dose 20 mg/kg, route po; settings: in vivo
[14] = MRT in ICR mouse at 20 mg/kg, po by LC-MS/MS analysis; type: ADME, organism-based; settings: in vivo
[15] = Elimination rate constant in ICR mouse at 20 mg/kg, po by LC-MS/MS analysis; type: ADME, organism-based; settings: in vivo; for k el: ICR
MIA PaCa-2 [16] = test: In vivo antitumor activity against human MIA PaCa-2 cells harboring KRAS G12C mutant xenografted in BALB/c mouse assessed as reduction in tumor volume at 50 mg/kg, po once a day measured for 16 days relative to control; type: functional; design: scale not given: the % may be the effect or the level left; settings: time 16 day
[17] = Toxicity in BALB/c mouse xenografted with human MIA PaCa-2 cells harboring KRAS G12C mutant assessed as mortality at 50 mg/kg, po once a day measured for 16 days; type: organism-based; settings: in vivo, 384 h, time 16 day
[18] = Metabolic stability in mouse liver microsomes assessed as half life in presence of NADPH by LC-MS/MS analysis; type: ADME, Microsome
[19] = Metabolic stability in mouse liver microsomes assessed as intrinsic clearance in presence of NADPH measured upto 60 mins by LC-MS/MS analysis; type: ADME, Microsome; settings: read-out: CLH
[20] = Metabolic stability in rat liver microsomes assessed as half life in presence of NADPH by LC-MS/MS analysis; type: ADME, Microsome
[21] = Metabolic stability in rat liver microsomes assessed as intrinsic clearance in presence of NADPH measured upto 60 mins by LC-MS/MS analysis; type: ADME, Microsome; settings: read-out: CLH
MIA PaCa-2 [22] = test: Antiproliferative activity against human MIA PaCa-2 cells assessed as cell viability measured after 72 hrs by MTT assay; type: functional, cell-based; settings: MIA PaCa-2, 72 h
MIA PaCa-2 [23] = test: In vivo antitumor activity against human MIA PaCa-2 cells harboring KRAS G12C mutant xenografted in BALB/c mouse assessed as reduction in tumor volume at 50 mg/kg, po once a day measured for 16 days relative to BI-3406; type: functional; design: scale not given: the % may be the effect or the level left; settings: time 16 day

SOS1-KRAS, sequence (Q07889 whole entry, looked up, stated change not applied): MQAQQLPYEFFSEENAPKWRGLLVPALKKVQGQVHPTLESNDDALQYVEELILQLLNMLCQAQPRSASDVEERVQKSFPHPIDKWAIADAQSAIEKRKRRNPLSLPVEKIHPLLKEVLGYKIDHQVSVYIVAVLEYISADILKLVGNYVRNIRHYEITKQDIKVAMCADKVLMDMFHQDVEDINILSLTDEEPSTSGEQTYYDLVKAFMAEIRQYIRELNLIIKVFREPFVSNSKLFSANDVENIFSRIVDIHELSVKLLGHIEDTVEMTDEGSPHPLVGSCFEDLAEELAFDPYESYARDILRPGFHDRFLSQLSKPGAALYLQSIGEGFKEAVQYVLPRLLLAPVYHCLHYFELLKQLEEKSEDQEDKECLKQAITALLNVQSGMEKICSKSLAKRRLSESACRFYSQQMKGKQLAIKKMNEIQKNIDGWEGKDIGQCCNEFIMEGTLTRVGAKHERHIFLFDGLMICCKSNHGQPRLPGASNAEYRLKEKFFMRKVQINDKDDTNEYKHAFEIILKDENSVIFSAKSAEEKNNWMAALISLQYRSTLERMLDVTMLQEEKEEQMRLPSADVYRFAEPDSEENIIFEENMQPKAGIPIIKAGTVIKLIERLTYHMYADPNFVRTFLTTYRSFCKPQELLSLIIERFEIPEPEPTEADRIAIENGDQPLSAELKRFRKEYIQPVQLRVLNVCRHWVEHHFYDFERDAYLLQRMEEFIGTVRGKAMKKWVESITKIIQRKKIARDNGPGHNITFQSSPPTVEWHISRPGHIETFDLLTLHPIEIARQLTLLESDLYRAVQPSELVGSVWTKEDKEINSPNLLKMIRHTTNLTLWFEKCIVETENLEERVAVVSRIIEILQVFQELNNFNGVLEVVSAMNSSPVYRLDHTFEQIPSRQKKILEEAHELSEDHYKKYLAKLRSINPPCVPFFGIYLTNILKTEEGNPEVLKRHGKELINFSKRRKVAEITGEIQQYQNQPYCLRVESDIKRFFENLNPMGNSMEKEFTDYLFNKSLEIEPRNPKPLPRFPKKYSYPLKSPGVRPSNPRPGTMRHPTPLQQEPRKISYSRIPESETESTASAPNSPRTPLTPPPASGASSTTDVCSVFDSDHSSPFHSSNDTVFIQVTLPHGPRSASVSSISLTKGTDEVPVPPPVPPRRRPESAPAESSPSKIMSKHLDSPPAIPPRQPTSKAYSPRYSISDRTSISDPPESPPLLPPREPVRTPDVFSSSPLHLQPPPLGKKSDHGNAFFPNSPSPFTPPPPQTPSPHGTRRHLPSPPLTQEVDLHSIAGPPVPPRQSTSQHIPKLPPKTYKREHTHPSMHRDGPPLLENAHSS

Row | SMILES | IC50 (SOS1-KRAS) [nM] | IC50 [1] [nM] | Activity (NCI-H358) | half-life [2] [h] | Tmax [3] [h] | Cmax [4] [ng/mL] | AUC [5] [ng·h/mL] | MRT [6] [h] | k el [7] [s⁻¹] | Activity [9] | half-life [10] [h] | Tmax [11] [h] | Cmax [12] [ng/mL] | AUC [13] [ng·h/mL] | MRT [14] [h] | k el [15] [s⁻¹] | Activity (MIA PaCa-2 [16]) [%] | Activity [17] | half-life [18] [h] | CLint scaled [19] [mL/min/kg] | further results
1 | CC(=O)N1CCN2c3cc4c(N[C@H](C)c5cccc(C(F)(F)CO)c5F)nc(C)nc4cc3OC[C@H]2C1 | 2.7 | 1.4 | Active | – | – | – | – | – | – | – | – | – | – | – | – | – | – | – | – | – | –
2 | CC(=O)N1CCN2c3cc4c(N[C@H](C)c5cccc(C(F)F)c5F)nc(C)nc4cc3OC[C@H]2C1 | 6.3 | 2.4 | Active | 1.87 | 0.33 | 63.4 | 148 | 1.9 | 0.000103 | Non-Toxic | 2.14 | 0.25 | 270 | 601 | 1.93 | 0.000119 | – | – | – | – | inhibition in vivo at 50 mg/kg (MIA PaCa-2 [8]): 42%
3 | COc1cc2nc(C)nc(N[C@H](C)c3cc(N)cc(C(F)(F)F)c3)c2cc1O[C@H]1CCOC1 | – | 30.7 | – | 1.3 | 0.5 | 241 | 550 | 1.7 | 0.000147 | Non-Toxic | 4.48 | 0.9 | 1050 | 4680 | 2.98 | 5.83e-05 | 42 | Non-Toxic | 0.18 | 504 | half-life [20]: 0.602 h; CLint scaled [21]: 69.5 mL/min/kg
4 | Cc1nc(N[C@H](C)c2cccc(C(F)F)c2F)c2cc3c(cc2n1)OC[C@H]1CN(C(=O)[C@@H]2C[C@H]2F)CCN31 | – | 6 | – | – | – | – | – | – | – | Non-Toxic | 6.67 | 5.67 | 651 | 4010 | 4.08 | 2.78e-05 | 49 | Non-Toxic | – | – | –
5 | Cc1nc(N[C@H](C)c2cccc(C(F)F)c2F)c2cc3c(cc2n1)OC[C@H]1CN(C(=O)[C@H]2CCOC2)CCN31 | – | 5 | – | – | – | – | – | – | – | Non-Toxic | – | 3.67 | 1550 | 9900 | 4.19 | – | 49 | Non-Toxic | 0.437 | 209 | IC50 (MIA PaCa-2 [22]): 178 nM; Activity (MIA PaCa-2 [23]): 71%; t1/2 ([10]; po, 20 mg/kg): 11.4 h; Kel ([15]; po, 20 mg/kg): 0.25 h⁻¹; half-life [20]: 1.12 h; CLint scaled [21]: 37.2 mL/min/kg
6 | CC(=O)N1CCN2c3cc4c(N[C@H](C)c5cc(N)cc(C(F)(F)F)c5)nc(C)nc4cc3OC[C@H]2C1 | 4.3 | 4.7 | Active | 1.49 | 1 | 8.89 | 53.5 | 10.1 | 0.000142 | – | – | – | – | – | – | – | – | – | – | – | –
